Reference: ChEMBL document CHEMBL5723584 (2023)

Experiments:
[1] = biological target: Protein kinase C alpha type (Homo sapiens) (UniProt P17252); assay: activity of PKCalpha(h) at 1.0 µM in the Eurofins Kinase panel; conditions: Compound concentration 1.0 uM
[2] = biological target: Serine/threonine-protein kinase Nek2 (Homo sapiens) (UniProt P51955); assay: activity of NEK2(h) at 1.0 µM in the Eurofins Kinase panel; conditions: Compound concentration 1.0 uM
[3] = biological target: Dual specificity protein kinase CLK4 (Homo sapiens) (UniProt Q9HAZ1); assay: activity of CLK4(h) at 1.0 µM in the Eurofins Kinase panel; conditions: Compound concentration 1.0 uM
[4] = biological target: Myosin-IIIb (Homo sapiens) (UniProt Q8WXR4); assay: activity of MYO3B(h) at 1.0 µM in the Eurofins Kinase panel; conditions: Compound concentration 1.0 uM
[5] = biological target: Tyrosine-protein kinase Lyn (Homo sapiens) (UniProt P07948); assay: activity of Lyn(h) at 1.0 µM in the Eurofins Kinase panel; conditions: Compound concentration 1.0 uM
[6] = biological target: CDC7/Cyclin B1 (Homo sapiens) (UniProt P14635+O00311); assay: activity of Cdc7/cyclinB1(h) at 1.0 µM in the Eurofins Kinase panel; assay type: protein-complex assay; conditions: Compound concentration 1.0 uM
[7] = biological target: Serine/threonine-protein kinase PAK 5 (Homo sapiens) (UniProt Q9P286); assay: activity of PAK5(h) at 1.0 µM in the Eurofins Kinase panel; conditions: Compound concentration 1.0 uM
Aurora kinase B = Aurora kinase B (Homo sapiens, UniProt Q96GD4); assay: activity of Aurora-B(h) at 1.0 µM in the Eurofins Kinase panel; conditions: Compound concentration 1.0 uM
[8] = biological target: Serine/threonine-protein kinase 32C (Homo sapiens) (UniProt Q86UX6); assay: activity of STK32C(h) at 1.0 µM in the Eurofins Kinase panel; conditions: Compound concentration 1.0 uM
[9] = biological target: AP2-associated protein kinase 1 (Homo sapiens, UniProt Q2M2I8); assay: Promega NanoBRET (AAK1)
[10] = biological target: MAP/microtubule affinity-regulating kinase 3 (Homo sapiens) (UniProt P27448); assay: activity of MARK3(h) at 1.0 µM in the Eurofins Kinase panel; conditions: Compound concentration 1.0 uM
[11] = biological target: Death-associated protein kinase 2 (Homo sapiens) (UniProt Q9UIK4); assay: activity of DAPK2(h) at 1.0 µM in the Eurofins Kinase panel; conditions: Compound concentration 1.0 uM
[12] = biological target: Mitogen-activated protein kinase kinase kinase 3 (Homo sapiens) (UniProt Q99759); assay: activity of MEKK3(h) at 1.0 µM in the Eurofins Kinase panel; conditions: Compound concentration 1.0 uM
[13] = biological target: Serine/threonine-protein kinase WNK2 (Homo sapiens) (UniProt Q9Y3S1); assay: activity of WNK2(h) at 1.0 µM in the Eurofins Kinase panel; conditions: Compound concentration 1.0 uM
[14] = biological target: Serine/threonine-protein kinase PLK2 (Homo sapiens) (UniProt Q9NYY3); assay: activity of Snk(h) at 1.0 µM in the Eurofins Kinase panel; conditions: Compound concentration 1.0 uM
[15] = biological target: Serine/threonine-protein kinase PAK 4 (Homo sapiens) (UniProt O96013); assay: activity of PAK4(h) at 1.0 µM in the Eurofins Kinase panel; conditions: Compound concentration 1.0 uM
[16] = biological target: MAP kinase-activated protein kinase 3 (Homo sapiens) (UniProt Q16644); assay: activity of MAPKAP-K3(h) at 1.0 µM in the Eurofins Kinase panel; conditions: Compound concentration 1.0 uM
[17] = biological target: RAF proto-oncogene serine/threonine-protein kinase (Homo sapiens) (UniProt P04049); assay: activity of c-RAF(h) at 1.0 µM in the Eurofins Kinase panel; conditions: Compound concentration 1.0 uM
[18] = biological target: Tyrosine-protein kinase JAK1 (Homo sapiens) (UniProt P23458); assay: activity of JAK1(h) at 1.0 µM in the Eurofins Kinase panel; conditions: Compound concentration 1.0 uM
[19] = biological target: Serine/threonine-protein kinase MRCK beta (Homo sapiens) (UniProt Q9Y5S2); assay: activity of MRCKbeta(h) at 1.0 µM in the Eurofins Kinase panel; conditions: Compound concentration 1.0 uM
[20] = biological target: Tyrosine-protein kinase Fes/Fps (Homo sapiens) (UniProt P07332); assay: activity of Fes(h) at 1.0 µM in the Eurofins Kinase panel; conditions: Compound concentration 1.0 uM
[21] = biological target: Mast/stem cell growth factor receptor Kit (Homo sapiens) (UniProt P10721); assay: activity of cKit(h) at 1.0 µM in the Eurofins Kinase panel; conditions: Compound concentration 1.0 uM
[22] = biological target: Cyclin-dependent kinase 13/Cyclin-K (Homo sapiens) (UniProt Q14004+O75909); assay: activity of CDK13/cyclinK(h) at 1.0 µM in the Eurofins Kinase panel; assay type: protein-complex assay; conditions: Compound concentration 1.0 uM
[23] = biological target: LIM domain kinase 2 (Homo sapiens) (UniProt P53671); assay: activity of LIMK2(h) at 1.0 µM in the Eurofins Kinase panel; conditions: Compound concentration 1.0 uM
[24] = biological target: Ephrin type-A receptor 7 (Homo sapiens) (UniProt Q15375); assay: activity of EphA7(h) at 1.0 µM in the Eurofins Kinase panel; conditions: Compound concentration 1.0 uM
Ephrin type-A receptor 7 (Homo sapiens), sequence (Q15375 28-998 limits assumed): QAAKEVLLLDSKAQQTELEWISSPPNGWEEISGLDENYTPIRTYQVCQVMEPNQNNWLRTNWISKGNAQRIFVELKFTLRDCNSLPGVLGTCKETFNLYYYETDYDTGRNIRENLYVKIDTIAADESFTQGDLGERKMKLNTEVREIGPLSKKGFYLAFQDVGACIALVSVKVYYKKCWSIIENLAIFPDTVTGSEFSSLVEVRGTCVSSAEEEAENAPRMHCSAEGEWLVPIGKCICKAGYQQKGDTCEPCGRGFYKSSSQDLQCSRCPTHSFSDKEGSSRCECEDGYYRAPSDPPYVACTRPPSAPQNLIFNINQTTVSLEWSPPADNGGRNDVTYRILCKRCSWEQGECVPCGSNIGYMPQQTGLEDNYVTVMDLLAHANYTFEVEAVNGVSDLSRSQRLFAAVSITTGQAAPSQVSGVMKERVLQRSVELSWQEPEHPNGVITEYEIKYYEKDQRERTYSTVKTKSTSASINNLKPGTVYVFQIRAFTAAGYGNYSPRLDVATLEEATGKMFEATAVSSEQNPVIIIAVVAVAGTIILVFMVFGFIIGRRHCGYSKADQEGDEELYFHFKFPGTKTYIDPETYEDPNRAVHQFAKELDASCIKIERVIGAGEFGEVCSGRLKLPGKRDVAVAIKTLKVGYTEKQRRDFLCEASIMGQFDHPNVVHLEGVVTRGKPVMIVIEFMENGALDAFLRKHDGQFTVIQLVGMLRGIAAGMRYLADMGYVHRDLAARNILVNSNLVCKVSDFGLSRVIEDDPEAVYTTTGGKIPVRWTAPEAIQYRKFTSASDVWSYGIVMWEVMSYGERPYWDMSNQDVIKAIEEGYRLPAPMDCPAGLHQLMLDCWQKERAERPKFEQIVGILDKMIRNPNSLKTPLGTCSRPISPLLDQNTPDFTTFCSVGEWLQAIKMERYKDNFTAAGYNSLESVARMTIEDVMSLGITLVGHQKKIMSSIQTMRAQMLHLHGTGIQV

MAP/microtubule affinity-regulating kinase 3 (Homo sapiens), sequence (P27448 whole entry, looked up): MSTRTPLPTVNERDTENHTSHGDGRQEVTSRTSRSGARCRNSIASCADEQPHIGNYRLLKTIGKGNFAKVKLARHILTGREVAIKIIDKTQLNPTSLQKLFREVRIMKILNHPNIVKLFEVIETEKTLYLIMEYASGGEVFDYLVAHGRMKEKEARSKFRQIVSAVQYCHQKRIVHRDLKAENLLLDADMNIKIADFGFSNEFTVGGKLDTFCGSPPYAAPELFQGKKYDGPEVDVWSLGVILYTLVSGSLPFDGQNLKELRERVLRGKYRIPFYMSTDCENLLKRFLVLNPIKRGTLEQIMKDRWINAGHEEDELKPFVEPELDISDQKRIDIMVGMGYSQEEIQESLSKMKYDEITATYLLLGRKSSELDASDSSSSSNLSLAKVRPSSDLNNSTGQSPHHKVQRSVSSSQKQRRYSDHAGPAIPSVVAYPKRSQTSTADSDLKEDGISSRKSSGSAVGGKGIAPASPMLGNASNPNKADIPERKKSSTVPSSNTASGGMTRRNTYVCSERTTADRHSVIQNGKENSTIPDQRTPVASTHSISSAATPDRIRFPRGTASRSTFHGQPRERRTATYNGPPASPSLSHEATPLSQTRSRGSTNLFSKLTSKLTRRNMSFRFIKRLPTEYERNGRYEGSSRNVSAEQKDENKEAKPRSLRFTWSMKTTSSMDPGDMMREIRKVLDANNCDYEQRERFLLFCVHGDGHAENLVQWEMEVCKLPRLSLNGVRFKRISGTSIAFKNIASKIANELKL
RAF proto-oncogene serine/threonine-protein kinase (Homo sapiens), sequence (P04049 whole entry): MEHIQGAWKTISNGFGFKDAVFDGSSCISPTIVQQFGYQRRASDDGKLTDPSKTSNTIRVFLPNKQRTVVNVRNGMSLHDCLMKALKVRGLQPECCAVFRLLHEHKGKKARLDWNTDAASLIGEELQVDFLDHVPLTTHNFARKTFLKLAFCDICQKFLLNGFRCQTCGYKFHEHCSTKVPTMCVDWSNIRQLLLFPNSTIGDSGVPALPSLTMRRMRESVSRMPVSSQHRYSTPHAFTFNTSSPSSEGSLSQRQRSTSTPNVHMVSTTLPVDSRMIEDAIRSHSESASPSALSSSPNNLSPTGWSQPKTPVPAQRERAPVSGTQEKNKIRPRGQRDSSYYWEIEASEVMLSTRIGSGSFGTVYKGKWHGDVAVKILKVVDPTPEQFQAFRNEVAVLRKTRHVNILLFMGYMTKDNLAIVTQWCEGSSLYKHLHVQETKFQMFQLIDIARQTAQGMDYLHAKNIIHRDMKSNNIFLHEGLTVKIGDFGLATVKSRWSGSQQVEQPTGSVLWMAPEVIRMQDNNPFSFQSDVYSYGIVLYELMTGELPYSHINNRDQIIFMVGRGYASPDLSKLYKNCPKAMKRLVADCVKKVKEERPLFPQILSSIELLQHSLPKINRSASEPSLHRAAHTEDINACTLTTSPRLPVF
Serine/threonine-protein kinase 32C (Homo sapiens), sequence (Q86UX6 whole entry): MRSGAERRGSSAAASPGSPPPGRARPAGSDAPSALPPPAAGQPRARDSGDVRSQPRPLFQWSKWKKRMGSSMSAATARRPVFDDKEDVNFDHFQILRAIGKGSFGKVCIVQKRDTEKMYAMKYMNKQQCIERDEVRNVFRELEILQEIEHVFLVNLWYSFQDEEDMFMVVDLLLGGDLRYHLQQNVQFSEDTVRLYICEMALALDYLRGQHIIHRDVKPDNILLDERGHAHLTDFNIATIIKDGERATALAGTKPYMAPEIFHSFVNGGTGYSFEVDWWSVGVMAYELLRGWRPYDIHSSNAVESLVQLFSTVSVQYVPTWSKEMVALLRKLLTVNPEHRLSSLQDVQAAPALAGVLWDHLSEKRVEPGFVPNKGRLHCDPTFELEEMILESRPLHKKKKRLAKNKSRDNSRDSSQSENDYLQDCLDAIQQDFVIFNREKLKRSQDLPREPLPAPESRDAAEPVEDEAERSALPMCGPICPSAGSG
Tyrosine-protein kinase Fes/Fps (Homo sapiens), sequence (P07332 whole entry): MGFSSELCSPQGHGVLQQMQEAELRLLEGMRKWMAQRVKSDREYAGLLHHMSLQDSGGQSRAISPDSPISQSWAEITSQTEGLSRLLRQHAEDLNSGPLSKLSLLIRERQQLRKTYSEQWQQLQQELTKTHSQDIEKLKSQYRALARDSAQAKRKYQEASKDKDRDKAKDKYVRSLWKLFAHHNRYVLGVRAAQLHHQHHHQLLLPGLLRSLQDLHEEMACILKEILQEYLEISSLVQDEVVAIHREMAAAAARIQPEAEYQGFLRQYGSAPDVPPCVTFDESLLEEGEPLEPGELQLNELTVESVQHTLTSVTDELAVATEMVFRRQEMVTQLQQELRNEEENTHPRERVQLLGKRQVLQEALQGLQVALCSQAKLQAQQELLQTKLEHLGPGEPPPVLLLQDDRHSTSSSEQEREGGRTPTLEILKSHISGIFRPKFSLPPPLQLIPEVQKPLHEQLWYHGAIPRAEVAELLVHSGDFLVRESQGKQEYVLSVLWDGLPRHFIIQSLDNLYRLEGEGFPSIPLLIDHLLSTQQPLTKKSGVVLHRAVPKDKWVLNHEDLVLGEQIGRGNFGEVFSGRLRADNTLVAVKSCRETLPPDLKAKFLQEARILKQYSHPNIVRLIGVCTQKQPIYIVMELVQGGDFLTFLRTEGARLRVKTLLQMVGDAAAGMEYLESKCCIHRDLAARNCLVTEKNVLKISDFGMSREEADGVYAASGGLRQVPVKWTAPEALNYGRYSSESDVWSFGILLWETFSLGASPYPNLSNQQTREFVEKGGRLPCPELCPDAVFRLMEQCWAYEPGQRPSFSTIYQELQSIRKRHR
Aurora kinase B, sequence (Q96GD4 whole entry): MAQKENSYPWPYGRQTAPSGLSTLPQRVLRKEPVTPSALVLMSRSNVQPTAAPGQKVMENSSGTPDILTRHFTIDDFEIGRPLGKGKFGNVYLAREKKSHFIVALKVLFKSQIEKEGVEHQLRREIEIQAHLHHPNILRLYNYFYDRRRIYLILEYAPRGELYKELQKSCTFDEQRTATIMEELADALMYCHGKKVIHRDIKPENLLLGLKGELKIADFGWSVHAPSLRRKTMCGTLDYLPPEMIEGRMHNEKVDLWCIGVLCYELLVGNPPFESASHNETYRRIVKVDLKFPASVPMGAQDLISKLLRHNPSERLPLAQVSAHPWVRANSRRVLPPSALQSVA
Dual specificity protein kinase CLK4 (Homo sapiens), sequence (Q9HAZ1 whole entry, looked up): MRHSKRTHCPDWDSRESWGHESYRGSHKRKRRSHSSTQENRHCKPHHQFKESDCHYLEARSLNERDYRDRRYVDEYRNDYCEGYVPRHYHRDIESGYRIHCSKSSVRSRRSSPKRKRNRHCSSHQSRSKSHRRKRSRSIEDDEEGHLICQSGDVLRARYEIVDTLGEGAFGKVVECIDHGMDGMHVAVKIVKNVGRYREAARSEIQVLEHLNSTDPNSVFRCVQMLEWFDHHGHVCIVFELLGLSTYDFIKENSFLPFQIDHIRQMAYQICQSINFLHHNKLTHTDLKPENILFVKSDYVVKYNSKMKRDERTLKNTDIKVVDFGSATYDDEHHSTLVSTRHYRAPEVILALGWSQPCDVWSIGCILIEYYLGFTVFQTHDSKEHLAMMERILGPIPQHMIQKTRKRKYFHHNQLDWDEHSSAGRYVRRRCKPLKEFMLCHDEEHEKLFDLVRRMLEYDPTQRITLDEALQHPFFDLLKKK
Death-associated protein kinase 2 (Homo sapiens), sequence (Q9UIK4 whole entry, looked up): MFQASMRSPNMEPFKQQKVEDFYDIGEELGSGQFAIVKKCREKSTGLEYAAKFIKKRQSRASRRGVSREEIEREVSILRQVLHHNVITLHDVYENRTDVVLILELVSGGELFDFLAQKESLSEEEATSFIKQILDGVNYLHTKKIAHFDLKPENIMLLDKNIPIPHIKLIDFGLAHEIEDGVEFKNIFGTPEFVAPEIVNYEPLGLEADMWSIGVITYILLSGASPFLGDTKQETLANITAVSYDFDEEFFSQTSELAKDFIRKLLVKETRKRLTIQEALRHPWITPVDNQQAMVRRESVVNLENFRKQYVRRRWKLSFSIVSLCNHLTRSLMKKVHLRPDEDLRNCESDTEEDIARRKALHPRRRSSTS

activity [1]: 92%
activity [2]: 118%
activity [3]: 85%
activity [4]: 79%
activity [5]: 80%
activity [6]: 75%
activity [7]: 87%
activity (Aurora kinase B): 109%
activity [8]: 85%
IC50 [9]: 6.2 µM (not active)
activity [10]: 90%
activity [12]: 107%
activity [13]: 94%
activity [14]: 94%
activity [15]: 83%
activity [16]: 125%
activity [17]: 106%
activity [18]: 85%
activity [19]: 100%
activity [20]: 111%
activity [21]: 85%
activity [22]: 99%
activity [23]: 72%
activity [24]: 114%
Structure (SMILES): Cc1cc2c(-c3ccc(NC(=O)[C@H](N)CC(C)(C)C)cc3C)ccnc2[nH]1
activity [11]: 109%
